Results: patent EP0068680A1, “Antibiotics” (BEECHAM GROUP PLC, priority 1981, dated 1983)
Values after ≈ are worked out from the molar mass of the structure shown. Like-named read-outs stand apart in the source and are kept apart here.

Assays:
[1] = system: Strep. agalactiae SPA1; experiment: MIC against Veterinary Bacteria in vitro (agar dilution)
Description: (§1) The activity of the compounds of the Examples against various veterinarily important bacteria, was assayed in vitro using two-fold serial dilutions in Diagnostic Sensitivity Test Agar inoculated with 10^4 organisms.

[2] = system: Bacillus subtilis 6633; experiment: MIC against Human Bacteria in vitro (agar dilution); format: cell-based; conditions: agar with 5% chocolated horse blood, 18 hours at 37°C
[3] = system: E. coli NCTC 10418; experiment: MIC against Veterinary Bacteria in vitro (agar dilution)
Description: as §1

[4] = system: M. suipneumoniae NCTC 10110; experiment: MIC against Mycoplasma in vitro (agar); format: cell-based; conditions: Friis broth solidified with 0.9% agarose, 6 days at 37°C
[5] = system: M. suipneumoniae JF 435; experiment: MIC against Mycoplasma in vitro (agar); format: cell-based; conditions: Friis broth solidified with 0.9% agarose, 6 days at 37°C
[6] = system: Corynebacterium xerosis 9755; experiment: MIC against Human Bacteria in vitro (agar dilution); format: cell-based; conditions: agar with 5% chocolated horse blood, 18 hours at 37°C
[7] = system: Ps. aeruginosa NCTC 10662; experiment: as above; format: cell-based; conditions: 18 hours at 37°C
[8] = system: M. bovis NCTC 10131; experiment: microbe, parasite or virus in culture; format: cell-based
[9] = system: M. bovigenitalium ATCC 14173; experiment: MIC against Mycoplasma in vitro (agar); format: cell-based; conditions: Friis broth solidified with 0.9% agarose, 6 days at 37°C
[10] = system: Staph. aureus 152 (pen. sens); experiment: MIC against Veterinary Bacteria in vitro (agar dilution)
Description: as §1

[11] = system: Staph. aureus B4 (pen. resistant); experiment: as above
Description: as §1

[12] = system: E. coli ESS; experiment: MIC against Human Bacteria in vitro (agar dilution); format: cell-based; conditions: agar with 5% chocolated horse blood, 18 hours at 37°C
[13] = system: Sarcina lutea 8340; experiment: as above; format: cell-based; conditions: agar with 5% chocolated horse blood, 18 hours at 37°C
[14] = system: Neisseria catarrhalis 1502; experiment: as above; format: cell-based; conditions: agar with 5% chocolated horse blood, 18 hours at 37°C
[15] = system: E. coli NCTC 10418; experiment: as above; format: cell-based; conditions: 18 hours at 37°C
[16] = system: M. suipneumoniae TAM 6N; experiment: MIC against Mycoplasma in vitro (agar); format: cell-based; conditions: Friis broth solidified with 0.9% agarose, 6 days at 37°C
[17] = system: M. hyorhinis ATCC 25021; experiment: MIC against Mycoplasma in vitro (agar); format: cell-based; conditions: Friis broth solidified with 0.9% agarose, 6 days at 37°C
[18] = system: E. coli E1; experiment: MIC against Veterinary Bacteria in vitro (agar dilution)
Description: as §1

[19] = system: M. suipneumoniae MS 16; experiment: MIC against Mycoplasma in vitro (agar); format: cell-based; conditions: Friis broth solidified with 0.9% agarose, 6 days at 37°C
[20] = system: M. suipneumoniae NB12; experiment: MIC against Mycoplasma in vitro (agar); format: cell-based; conditions: Friis broth solidified with 0.9% agarose, 6 days at 37°C
[21] = system: Strep. pneumoniae CN33; experiment: MIC against Human Bacteria in vitro (agar dilution); format: cell-based; conditions: agar with 5% chocolated horse blood, 18 hours at 37°C
[22] = system: M. suipneumoniae LABER; experiment: MIC against Mycoplasma in vitro (agar); format: cell-based; conditions: Friis broth solidified with 0.9% agarose, 6 days at 37°C
[23] = system: Haemophilus influenzae Q1; experiment: MIC against Human Bacteria in vitro (agar dilution); format: cell-based; conditions: agar with 5% chocolated horse blood, 18 hours at 37°C
[24] = system: Staph. aureus Oxford; experiment: as above; format: cell-based; conditions: agar with 5% chocolated horse blood, 18 hours at 37°C
[25] = system: Erysipelothrix rhusiopathiae NCTC 8163; experiment: MIC against Veterinary Bacteria in vitro (agar dilution)
Description: as §1

[26] = system: M. suipneumoniae ATCC 25095; experiment: MIC against Mycoplasma in vitro (agar); format: cell-based; conditions: Friis broth solidified with 0.9% agarose, 6 days at 37°C
[27] = system: Past. multocida PA1; experiment: MIC against Veterinary Bacteria in vitro (agar dilution)
Description: as §1

[28] = system: K. aerogenes A; experiment: MIC against Human Bacteria in vitro (agar dilution); format: cell-based; conditions: agar with 5% chocolated horse blood, 18 hours at 37°C
[29] = system: Past. multocida PA2; experiment: MIC against Veterinary Bacteria in vitro (agar dilution)
Description: as §1

[30] = system: M. suipneumoniae HK(2); experiment: MIC against Mycoplasma in vitro (agar); format: cell-based; conditions: Friis broth solidified with 0.9% agarose, 6 days at 37°C
[31] = system: Strep. dysgalactiae SPD1; experiment: MIC against Veterinary Bacteria in vitro (agar dilution)
Description: as §1

[32] = system: Strep. uberis SPU1; experiment: as above
Description: as §1

[33] = system: Strep. suis (group D) SPS11; experiment: as above
Description: as §1

[34] = system: Strep. faecalis I; experiment: MIC against Human Bacteria in vitro (agar dilution); format: cell-based; conditions: agar with 5% chocolated horse blood, 18 hours at 37°C
[35] = system: M. hyosynoviae ATCC 25591; experiment: MIC against Mycoplasma in vitro (agar); format: cell-based; conditions: Friis broth solidified with 0.9% agarose, 6 days at 37°C
[36] = system: Bord. bronchiseptica B08; experiment: MIC against Veterinary Bacteria in vitro (agar dilution)
Description: as §1

[37] = system: Strep. pyogenes B2788; experiment: MIC against Human Bacteria in vitro (agar dilution); format: cell-based; conditions: agar with 5% chocolated horse blood, 18 hours at 37°C
[38] = system: Staph. aureus Oxford; experiment: MIC against Veterinary Bacteria in vitro (agar dilution)
Description: as §1

[39] = system: M. hyorhinis ATCC 23234; experiment: MIC against Mycoplasma in vitro (agar); format: cell-based; conditions: Friis broth solidified with 0.9% agarose, 6 days at 37°C
[40] = system: Past. haemolytica PA5; experiment: MIC against Veterinary Bacteria in vitro (agar dilution)
Description: as §1

[41] = agar with 5% chocolated horse blood
[42] = Mesomycoplasma hyopneumoniae, 144 h, read-out: MIC

For Methyl pseudomonate D [Example 2], the MIC ([1]; Strep. agalactiae SPA1, Diagnostic Sensitivity Test Agar, 18 hours at 37°C) was 0.312 µg/mL, the MIC [2] was 0.5 µg/mL and the MIC ([3]; E. coli NCTC 10418, Diagnostic Sensitivity Test Agar, 18 hours at 37°C) was 40 µg/mL. The MIC [4] was 5.0 µg/mL, the MIC [5] was 5.0 µg/mL and the MIC [6] was >100 µg/mL. The MIC [7, 41] was >100 µg/mL, the MIC ([8]; M. bovis NCTC 10131, Friis broth solidified with 0.9% agarose, 6 days at 37°C) was 0.05 µg/mL and the MIC [9] was 0.1 µg/mL. It also gave an MIC ([10]; Staph. aureus 152 (pen. sens), Diagnostic Sensitivity Test Agar, 18 hours at 37°C) of 0.625 µg/mL, an MIC ([11]; Staph. aureus B4 (pen. resistant), Diagnostic Sensitivity Test Agar, 18 hours at 37°C) of 80 µg/mL and an MIC [12] of 1.0 µg/mL. For the same molecule, the MIC [13] was >100 µg/mL, the MIC [14] was 0.5 µg/mL and the MIC [15, 41] was >100 µg/mL. For the same molecule, the MIC [16] was 10 µg/mL, the MIC [17] was 1.0 µg/mL and the MIC ([18]; E. coli E1, Diagnostic Sensitivity Test Agar, 18 hours at 37°C) was 40 µg/mL. For the same molecule, the MIC [19] was 2.5 µg/mL, the MIC [20] was 5.0 µg/mL and the MIC [21] was 2.5 µg/mL. For the same molecule, the MIC [22] was 2.5 µg/mL, the MIC [23] was 0.5 µg/mL and the MIC [24] was 0.5 µg/mL. For the same molecule, the MIC ([25]; Erysipelothrix rhusiopathiae NCTC 8163, Diagnostic Sensitivity Test Agar, 18 hours at 37°C) was 20 µg/mL, the MIC [26] was 2.5 µg/mL and the MIC ([27]; Past. multocida PA1, Diagnostic Sensitivity Test Agar, 18 hours at 37°C) was 10 µg/mL. The MIC [28] was >100 µg/mL, the MIC ([29]; Past. multocida PA2, Diagnostic Sensitivity Test Agar, 18 hours at 37°C) was 2.5 µg/mL and the MIC [30] was 5.0 µg/mL. For the same molecule, the MIC ([31]; Strep. dysgalactiae SPD1, Diagnostic Sensitivity Test Agar, 18 hours at 37°C) was 0.156 µg/mL, the MIC ([32]; Strep. uberis SPU1, Diagnostic Sensitivity Test Agar, 18 hours at 37°C) was 5.0 µg/mL and the MIC ([33]; Strep. suis (group D) SPS11, Diagnostic Sensitivity Test Agar, 18 hours at 37°C) was 0.625 µg/mL. For the same molecule, the MIC [34] was >100 µg/mL, the MIC [35] was 0.5 µg/mL and the MIC ([36]; Bord. bronchiseptica B08, Diagnostic Sensitivity Test Agar, 18 hours at 37°C) was 40 µg/mL. It also gave an MIC [37] of 2.5 µg/mL, an MIC ([38]; Staph. aureus Oxford, Diagnostic Sensitivity Test Agar, 18 hours at 37°C) of 0.625 µg/mL and an MIC [39] of 1.0 µg/mL. For the same molecule, the MIC ([40]; Past. haemolytica PA5, Diagnostic Sensitivity Test Agar, 18 hours at 37°C) was 1.25 µg/mL.
In the case of `CC(=CC(=O)OCCCCC=CCCC(=O)O)CC1OCC(CC2OC2C(C)C(C)O)C(O)C1O` (centres unmarked) [Example 1, pseudomonic acid D], the MIC ([1]; Streptococcus agalactiae, SPA1, 18 h) is reported as 0.625 µg/mL (≈ 1.25 µM), the MIC ([2]; read-out: MIC) is reported as 1 µg/mL (≈ 2.01 µM) and the MIC ([3]; Escherichia coli, NCTC10418, 18 h) is reported as > 20 µg/mL. The MIC ([4]; Mesomycoplasma hyopneumoniae, NCTC10110, 144 h, read-out: MIC) was 5 µg/mL (≈ 10 µM), the MIC ([5]; Mesomycoplasma hyopneumoniae, JF435, 144 h, read-out: MIC) was 5 µg/mL (≈ 10 µM) and the MIC ([6]; read-out: MIC) was > 25 µg/mL. The MIC ([7]; Pseudomonas aeruginosa, NCTC10662, agar with 5% chocolated horse blood, read-out: MIC) was > 25 µg/mL, the MIC ([8]; NCTC10131, 144 h) was 0.05 µg/mL (≈ 0.1 µM) and the MIC ([9]; 144 h, read-out: MIC) was 0.1 µg/mL (≈ 0.201 µM). It also gave an MIC ([10]; Staphylococcus aureus, 18 h) of 0.312 µg/mL (≈ 0.626 µM), an MIC ([11]; Staphylococcus aureus, 18 h) of 0.312 µg/mL (≈ 0.626 µM) and an MIC ([12]; Escherichia coli, read-out: MIC) of 1 µg/mL (≈ 2.01 µM). For the same molecule, the MIC ([13]; Micrococcus luteus, read-out: MIC) was > 25 µg/mL, the MIC ([14]; read-out: MIC) was 0.5 µg/mL (≈ 1 µM) and the MIC ([15]; Escherichia coli, NCTC10418, agar with 5% chocolated horse blood, read-out: MIC) was > 25 µg/mL. For the same molecule, the MIC ([16]; Mesomycoplasma hyopneumoniae, TAM6N, 144 h, read-out: MIC) was 5 µg/mL (≈ 10 µM), the MIC ([17]; Mesomycoplasma hyorhinis, ATCC25021, 144 h, read-out: MIC) was 1 µg/mL (≈ 2.01 µM) and the MIC ([18]; Escherichia coli, E1, 18 h) was > 20 µg/mL. For the same molecule, the MIC ([19]; Mesomycoplasma hyopneumoniae, MS16, 144 h, read-out: MIC) was 2.5 µg/mL (≈ 5.01 µM), the MIC [20, 42] was 1 µg/mL (≈ 2.01 µM) and the MIC ([21]; Streptococcus pneumoniae, read-out: MIC) was 0.25 µg/mL (≈ 0.501 µM). It also gave an MIC [22, 42] of 2.5 µg/mL (≈ 5.01 µM), an MIC ([23]; read-out: MIC) of 0.25 µg/mL (≈ 0.501 µM) and an MIC ([24]; Staphylococcus aureus, read-out: MIC) of 1 µg/mL (≈ 2.01 µM). For the same molecule, the MIC ([25]; Erysipelothrix rhusiopathiae, NCTC8163, 18 h) was 10 µg/mL (≈ 20.1 µM), the MIC ([26]; Mesomycoplasma hyopneumoniae, ATCC25095, 144 h, read-out: MIC) was 1 µg/mL (≈ 2.01 µM) and the MIC ([27]; Pasteurella multocida, PA1, 18 h) was 0.156 µg/mL (≈ 0.313 µM). For the same molecule, the MIC ([28]; Klebsiella aerogenes, read-out: MIC) was > 25 µg/mL, the MIC ([29]; Pasteurella multocida, PA2, 18 h) was < 0.019 µg/mL and the MIC [30, 42] was 5 µg/mL (≈ 10 µM). It also gave an MIC ([31]; Streptococcus dysgalactiae, SPD1, 18 h) of 0.156 µg/mL (≈ 0.313 µM), an MIC ([32]; Streptococcus uberis, SPU1, 18 h) of 0.039 µg/mL (≈ 0.0782 µM) and an MIC ([33]; Streptococcus suis, 18 h) of 1.25 µg/mL (≈ 2.51 µM). For the same molecule, the MIC ([34]; Enterococcus faecalis, read-out: MIC) was > 25 µg/mL, the MIC ([35]; 144 h, read-out: MIC) was 0.5 µg/mL (≈ 1 µM) and the MIC ([36]; Bordetella bronchiseptica, B08, 18 h) was 10 µg/mL (≈ 20.1 µM). The MIC ([37]; Streptococcus pyogenes, read-out: MIC) was 0.5 µg/mL (≈ 1 µM), the MIC ([38]; Staphylococcus aureus, 18 h) was 0.312 µg/mL (≈ 0.626 µM) and the MIC ([39]; Mesomycoplasma hyorhinis, ATCC23234, 144 h, read-out: MIC) was 1 µg/mL (≈ 2.01 µM). It also gave an MIC ([40]; Mannheimia haemolytica, PA5, 18 h) of 2.5 µg/mL (≈ 5.01 µM).
